For experiment [1], the system named is Mycobacterium intracellulare. As to the kind of experiment: Activity against M. intracellulare. It is filed as cell-based. The following applies: Mycobacterium intracellulare; T6; read-out: Mycobacterium intracellulare IC50.
In experiment [2] the test system is P. falciparum (chlorine-resistant W2 clone). As to the kind of experiment: Antimalarial activity in vitro, W2 clone. The format is cell-based, Plasmodium falciparum. Conditions: Plasmodium falciparum, W2; T6; read-out: P. falciparum (W2 clone) IC50.
Another experiment deals with Candida albicans. Description: Antifungal activity against Candida albicans. It is filed as cell-based.
The next experiment deals with Staphylococcus aureus. Description: Antibacterial activity against S. aureus. It is filed as cell-based. Conditions: Staphylococcus aureus, T6.
In experiment [3] the test system is methicillin-resistant Staphylococcus aureus. Description: Antibacterial activity against MRS. It is filed as cell-based. Conditions: T6.
Another experiment concerns Cryptococcus neoformans. Description: Antifungal activity against Cryptococcus neoformans. It is filed as cell-based.
Experiment [4] relates to Plasmodium falciparum (D6 clone). As to the kind of experiment: Antimalarial activity in vitro, D6 clone. The following applies: Plasmodium falciparum, D6; T6. It is filed as cell-based.
Experiment [5] has as its system Mycobacterium tuberculosis H37Rv. As to the kind of experiment: In vitro antimycobacterial activity (Microplate Alamar Blue Assay), MIC. It is filed as cell-based. On the technique in general: The colour change of resazurin is a common sign of viable cells or microbes.
For the next experiment, the system named is Aspergillus fumigatus. Description: Antifungal activity against Aspergillus fumigatus. It is filed as cell-based. Conditions: T6, footnote a: the lowest concentration that significantly inhibits growth.
For the next experiment, the system named is Leishmania donovani. As to the kind of experiment: Antileishmanial activity in vitro. It is filed as cell-based. Conditions: T4.
The test system of experiment [6] is human lung carcinoma A-549.
A further experiment relates to HIV-1LAV. As to the kind of experiment: Anti-HIV-1 activity in PBM cells. The format is cell-based, human immunodeficiency virus (HIV-1). The protocol:
Anti-HIV-1 activity was determined in PBM cells as described previously. See, Stock solutions (20 or 40 mM) of the compounds were prepared in sterile DMSO and then diluted to the desired concentration in growth medium. Cells were infected with the prototype HIV-1LAV at a multiplicity of infection of 0.1. Details on the infection of cells and assessment of antiviral effects was described previously. See, Schinazi, R. F.; McMillan, A.; Cannon, D.; Mathis, R.; Lloyd, R. M.; Peck, A.; Sommadossi, J.-P.; Clair, M. S.; Wilson, J.; Furman, P. A.; Painter G.; Choi, W.-B.; Liotta, D. C. Antimicrob. Agents Chemother. 1992, 36, 2423-2431 and Schinazi, R. F.; Sommadossi, J.-P.; Saalmann, V.; Cannon, D. L.; Xie, M.-Y.; Hart, G. C.; Smith, G. A.; Hahn, E. F. Antimicrob. Agents Chemother. 1990, 34, 1061-1067.

The subject of experiment [7] is human colon carcinoma H-116.

≈ marks a conversion by molar mass, not a printed value.

Turning to `C1=C/[C@@H]2[C@H]3CCCC[C@@H]3C[C@@H]2NCCCNC2C[C@H]3CCCC[C@@H]3[C@H]2/C=C/1` (single isomer, unassigned; (-)) [Papuamine, (−)-papuamine], the IC50 turned out to be 4 µg/mL (≈ 10.9 µM) in experiment [1]; 0.34 µg/mL (≈ 0.922 µM) in [2]; 1.5 µg/mL (≈ 4.07 µM) in the experiment on Candida albicans (Candida albicans, T6); 2.5 µg/mL (≈ 6.78 µM) in the experiment on Staphylococcus aureus (read-out: Staphylococcus aureus IC50); 2.5 µg/mL (≈ 6.78 µM) in [3] (MRS: methicillin-resistant Staphylococcus aureus, read-out: MRS IC50); 0.35 µg/mL (≈ 0.95 µM) in the experiment on Cryptococcus neoformans (Cryptococcus neoformans, read-out: Cryptococcus neoformans IC50). For the same compound, half-maximal inhibition in experiment [4] (IC50) was put at 0.15 µg/mL (≈ 0.407 µM). Also, the MIC in the experiment on Candida albicans (Candida albicans, T6, MIC: lowest concentration that allows no detectable growth) was found to be 5 µg/mL (≈ 13.6 µM); in the experiment with Staphylococcus aureus, 5 µg/mL (≈ 13.6 µM); in experiment [3] (Staphylococcus aureus), 5 µg/mL (≈ 13.6 µM); against Cryptococcus neoformans (Cryptococcus neoformans, lowest concentration that allows no detectable growth) it was 0.63 µg/mL (≈ 1.71 µM); in [5] (Mycobacterium tuberculosis, H37RV, T6, read-out: Mycobacterium tuberculosis MIC), 0.4 µg/mL (≈ 1.09 µM); against Aspergillus fumigatus (Aspergillus fumigatus) it was 1.25 µg/mL (≈ 3.39 µM).

As for `C[C@@H]1[C@H](O)[C@@H](C)/C=C/C=C/C=C/C=C/C=C/C=C/C=C/[C@H](O[C@@H]2O[C@H](C)[C@@H](O)[C@H](N)[C@@H]2O)C[C@@H]2O[C@](O)(C[C@@H](O)C[C@@H](O)[C@H](O)CC[C@@H](O)C[C@@H](O)CC(=O)O[C@H]1C)C[C@H](O)[C@H]2C(=O)O` [Amphotericin B, reference compound], in the experiment with Candida albicans (T6), the “Candida albicans IC50” value was found to be 0.10 µg/mL. The “Candida albicans MIC” value in the experiment on Candida albicans (T6, MIC: lowest concentration that allows no detectable growth) turned out to be 0.63 µg/mL. In addition, in the experiment with Leishmania donovani, the “Leishmania donovani IC 50” value came out at 0.06 µg/mL and the “Leishmania donovani IC 90” value amounted to 0.15 µg/mL. For the same compound, the “Cryptococcus neoformans IC50” value in the experiment with Cryptococcus neoformans was found to be 0.25 µg/mL. Besides, the “Antifungal IC50 C. neoformans” value with Cryptococcus neoformans (T5, NA = not active) was 0.15 µg/mL. The “Cryptococcus neoformans MIC” value in the experiment on Cryptococcus neoformans (lowest concentration that allows no detectable growth) was determined as 0.63 µg/mL. In the experiment on Aspergillus fumigatus, the “Aspergillus fumigatus MIC” value is on record as 0.63^a μg/mL.

`CC(=O)C[C@H]1C[C@H]2[C@H]([C@@H]3c4[nH]c5ccccc5c4CCN13)[C@H](O)C13CC/C=C\CCCCN1CC21C2CCCCCCCN2[C@H]13` (some centres unmarked) [Manadomanzamine A]: the “IC50 against the fungus Candida albicans” value in the experiment with Candida albicans is 20 µg/mL (≈ 32.7 µM). In [6], the “IC50 against human lung carcinoma A-549” value turned out to be 2.5 µg/mL (≈ 4.09 µM). The “MIC against Mycobacterium tuberculosis (Mtb)” value in experiment [5] (rifampin = positive control) amounted to 1.86 µg/mL (≈ 3.04 µM). Besides, the “EC50 against human immunodeficiency virus (HIV-1)” value in the experiment on HIV-1LAV came out at 6.96 µg/mL (≈ 11.4 µM). In addition, the “IC50 against human colon carcinoma H-116” value in experiment [7] was determined as 5.0 µg/mL (≈ 8.18 µM).

As usually defined, the IC50 is the concentration needed to halve the response being measured. By MIC is commonly meant the smallest concentration in the dilution series that meets the test's criterion for growth inhibition.

These data come from US20050085554A1, “Methods of treating disease through the administration of a manzamine analog or derivative” (priority 2003, published 2005).
